Experiment [1] deals with MoeGT1 (Streptomyces viridosporus). In words: LC/MS conversion time course. Format: biochemical. The note with it: donor 1 mM, 40 uM compound 7, 800 nM enzyme, 5 mM MgCl2, pH 7.5, 37 °C.
Experiment [2] deals with MoeE5 (Streptomyces viridosporus). As to the kind of experiment: anion-exchange HPLC. Format: biochemical. The note with it: 1 mM UDP-GlcUA, 1 uM enzyme, 20 mM Tris-HCl pH 7.5, 37 °C, 2 h.

On to `O=C(O)[C@H]1O[C@H](OP(=O)(O)OP(=O)(O)OC[C@H]2O[C@@H](n3ccc(=O)[nH]c3=O)[C@H](O)[C@@H]2O)[C@H](O)[C@@H](O)[C@H]1O` [UDP-GalUA], for which, in experiment [1], the “LC/MS conversion time course” value was “showed a clear preference for UDP-GalUA over UDP-GlcUA”. Besides, in experiment [2], the “anion-exchange HPLC” value was “we conclude that MoeE5 epimerizes UDP-GlcUA to UDP-GalUA”.

The values above are taken from publication PMC2747051 (Biochemistry, 2009).
